Measured values published in ChEMBL document CHEMBL1201862, “PubChem BioAssay data set” (2004).
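Cultured in 96-well plates, cells were exposed to test compound for 48 hours across five concentrations. Here, GI50 denotes the concentration required for 50% inhibition of growth.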 Active and inactive are the calls of the source. Cut-off read from the data, not from the text of the source: active = GI50 up to about 1.1 µM and inactive = higher.

Columns and labels:
Test in all cases: DTP human tumour cell line panel, 48 h
UACC-62 = test system: UACC-62
TK-10 = test system: TK-10
SNB-19 = test system: SNB-19
786-0 = test system: 786-0
HCT-116 = test system: HCT-116
M19-MEL = test system: M19-MEL
U-251 = test system: U-251
CAKI-1 = test system: CAKI-1
RPMI-8226 = test system: RPMI-8226
SF-268 = test system: SF-268
NCI-H23 = test system: NCI-H23
LOX IMVI = test system: LOX IMVI
K562 = test system: K562
SF-295 = test system: SF-295
SNB-75 = test system: SNB-75
SR = test system: SR

Measured: GI50

NC(=O)c1csc(C2CCC(CO)O2)n1 (centres undefined)
inactive: UACC-62 > 100 µM | TK-10 > 100 µM | SNB-19 > 100 µM | 786-0 > 100 µM | HCT-116 > 100 µM | M19-MEL > 100 µM | U-251 > 100 µM | CAKI-1 > 100 µM | RPMI-8226 > 100 µM | SF-268 > 100 µM | NCI-H23 > 100 µM | LOX IMVI > 100 µM | K562 > 100 µM | SF-295 > 100 µM

C=C(C)CCN[Si](c1ccccc1)(c1ccccc1)C(C)(C)C
inactive: UACC-62 17 µM | TK-10 22.5 µM | SNB-19 18.4 µM | 786-0 16.6 µM | HCT-116 14.6 µM | M19-MEL 20.5 µM | U-251 15.4 µM | SNB-75 28.5 µM | RPMI-8226 24 µM | SF-268 30.5 µM | NCI-H23 19.4 µM | LOX IMVI 17.8 µM | K562 24.1 µM | SF-295 19.3 µM

CCOC(=O)C(Cc1ccccc1)NC(=O)OC(C)(C)C (centres undefined)
inactive: UACC-62 > 100 µM | TK-10 > 100 µM | SNB-19 > 100 µM | 786-0 > 100 µM | HCT-116 > 100 µM | M19-MEL > 100 µM | U-251 > 100 µM | SNB-75 > 100 µM | CAKI-1 > 10 µM | SF-268 > 100 µM | NCI-H23 > 100 µM | LOX IMVI > 100 µM | K562 > 100 µM | SF-295 > 100 µM

CSc1cnc2ccccc2c1Sc1cn(C)c2ccccc2c1=O
inactive: UACC-62 21.9 µM | TK-10 > 100 µM | SNB-19 19.1 µM | 786-0 30.3 µM | HCT-116 10.2 µM | M19-MEL 56 µM | U-251 7.14 µM | SNB-75 17 µM | RPMI-8226 17.9 µM | SR 12.6 µM | SF-268 9.14 µM | NCI-H23 19.5 µM | LOX IMVI 14.6 µM | K562 7.82 µM | SF-295 22.6 µM

c1ccc(SC2CCSc3ccccc3C2Sc2ccccc2)cc1 (centres undefined)
inactive: UACC-62 > 10 µM | TK-10 > 100 µM | SNB-19 94.4 µM | 786-0 > 100 µM | HCT-116 9.75 µM | M19-MEL > 10 µM | U-251 > 100 µM | SNB-75 19.8 µM | CAKI-1 22.8 µM | RPMI-8226 96.4 µM | SF-268 > 100 µM | LOX IMVI > 100 µM | K562 > 100 µM | SF-295 35.2 µM

CCOC(=O)C1=C(C(=O)OCC)C2(c3ccccc3)N(O1)c1ccccc1C2(C)C (centres undefined)
inactive: UACC-62 36.5 µM | TK-10 > 100 µM | SNB-19 38.3 µM | 786-0 75.7 µM | HCT-116 32.4 µM | M19-MEL 70.8 µM | U-251 34 µM | SNB-75 25.6 µM | CAKI-1 26.7 µM | RPMI-8226 20.7 µM | SF-268 31.2 µM | NCI-H23 30 µM | K562 42.7 µM | SF-295 45.5 µM

O=C1C2c3[nH]c4ccccc4c3C3CCC(c4ccccc4)CC3C2C(=O)N1c1ccccc1 (centres undefined)
inactive: UACC-62 > 100 µM | TK-10 > 100 µM | SNB-19 > 100 µM | 786-0 > 100 µM | M19-MEL > 100 µM | U-251 > 100 µM | SNB-75 27.3 µM | RPMI-8226 > 100 µM | SR 92.5 µM | SF-268 > 100 µM | NCI-H23 > 100 µM | LOX IMVI > 100 µM | K562 55.1 µM | SF-295 > 100 µM
